We go through ten compounds from US20230131943A1, “ANTI-INFECTIVE AND ANTI-VIRAL COMPOUNDS AND COMPOSITIONS” (priority 2020, published 2023).

The test system of one data set is SARS-CoV-2. Put plainly: SARS-CoV-2 virus production in infected CaCo2 cells (fluorescence or luminescence normalized to Hoechst). The following applies: for SARS-CoV-2 viral protein production in CaCo2 cells - effect of each substance at 10 μM (% of untreated): 10 μM in medium, low values indicate inhibition of viral protein production; for Fluorescence ratio: added substances at the fixed concentration indicated, CaCo2 cells, untreated = 0.2.

Another data set deals with Staphylococcus carnosus. Put plainly: Inhibition of growth of Staphylococcus carnosus (optical density of culture). The class given is cell-based. To be noted: after 9-20 h, no compound 0.887. On the procedure: (§1) Activity of substances in the inhibition of growth of bacteria. Bacteria including the species Escherichia coli, Bacillus pumilus, Salmonella sp., Micrococcus luteus and Staphylococcus carnosus are cultured in appropriate media (Luria broth for all except S. canosus). Overnight cultures are mixed with fresh medium to reach an optical density at […] of ca. 0.1 AU. These cultures are mixed with solutions of substances to be tested at concentrations ranging from 100 μM to 0.05 μM in a microtitre plate. The growth of the culture is monitored by measuring the optical density at various times after the addition of the inhibitor. Reduction in the rate of increase in optical density corresponds to an inhibition of bacterial growth. In the following tables, the activity of various of the test substances may be observed by reductions in optical density relative to untreated control cultures.

In the next data set the test system is Salmonella typhimurium. As to the kind of experiment: Inhibition of growth of Salmonella typhimurium (optical density of culture). The class given is cell-based. To be noted: after 9-20 h, no compound 0.943. On the procedure: as §1
The subject of data set [1] is Staphylococcus aureus Newman. Put plainly: Infection of mice by Staphylococcus aureus Newman (body weight, CFU from kidney). The following applies: FIG. 6; mice infected with Staphylococcus aureus Newman. In kind it is in vivo.

As to `CCCC(=O)O[C@@H]1C(N(C)C)C[C@@H](C)O[C@H]1O[C@@H]1[C@@H](C)[C@H](O[C@H]2C[C@@](C)(OC)[C@@H](O)[C@H](C)O2)[C@@H](C)C(=O)O[C@H](CC)[C@@](C)(O)[C@H](O)[C@@H](C)N(C)C[C@H](C)C[C@@]1(C)O` (some centres unmarked) [Compound E-19], the “SARS-CoV-2 viral protein production in CaCo2 cells - effect of each substance at 10 μM (% of untreated)” value in the data set on SARS-CoV-2 is recorded as 34 % of untreated.

As to `CCC(=O)O[C@@H]1[C@@H](C)N(C)C[C@H](C)C[C@@](C)(O)[C@H](O[C@@H]2O[C@H](C)CC(N(C)C)[C@H]2O)[C@@H](C)[C@H](O[C@H]2C[C@@](C)(OC)[C@@H](O)[C@H](C)O2)[C@@H](C)C(=O)O[C@H](CC)[C@@]1(C)O` (some centres unmarked) [Compound E-18], the “SARS-CoV-2 viral protein production in CaCo2 cells - effect of each substance at 10 μM (% of untreated)” value with SARS-CoV-2 is 49 % of untreated.

With `CC[C@H]1OC(=O)[C@H](C)[C@@H](O[C@H]2C[C@@](C)(OC)[C@@H](O)[C@H](C)O2)[C@H](C)[C@@H](O[C@@H]2O[C@H](C)CC(N(C)C)[C@H]2O)[C@](C)(O)C[C@@H](C)CN(C)[C@H](C)[C@@H](O[N+](=O)[O-])[C@]1(C)O` (some centres unmarked) [Compound E-10], the “Absorbance of culture medium at 600 nm” value with Staphylococcus carnosus (0.8 μM) came out at 0.862; with Staphylococcus carnosus (2 μM), 0.826; in the data set on Staphylococcus carnosus (3 μM), 0.768; in the data set with Staphylococcus carnosus (6 μM), 0.699; in the data set on Staphylococcus carnosus (13 μM), 0.702; with Staphylococcus carnosus (25 μM) it was 0.595. Besides, the “Absorbance of culture medium at 600 nm” value was 0.433 in the data set on Staphylococcus carnosus (50 μM); 0.576 in the data set on Staphylococcus carnosus (100 μM); 0.334 in the data set with Salmonella typhimurium (0.8 μM); 0.361 in the data set with Salmonella typhimurium (2 μM); 0.402 in the data set with Salmonella typhimurium (3 μM); 0.382 in the data set with Salmonella typhimurium (6 μM). For the same compound, the “Absorbance of culture medium at 600 nm” value with Salmonella typhimurium (13 μM) came out at 0.399; in the data set on Salmonella typhimurium (25 μM), 0.390; with Salmonella typhimurium (50 μM), 0.315; in the data set on Salmonella typhimurium (100 μM), 0.280.

In the case of `CCCN(CCO)CC(O)CN(C)[C@H]1C[C@@H](C)O[C@@H](O[C@@H]2[C@@H](C)[C@H](O[C@H]3C[C@@](C)(OC)[C@@H](O)[C@H](C)O3)[C@@H](C)C(=O)O[C@H](CC)[C@@](C)(O)[C@H](O)[C@@H](C)N(C)C[C@H](C)C[C@@]2(C)O)[C@@H]1O` (stereo partly drawn) [Compound A-24, (2R,3S,4R,5R,8R,10R,11R,12S,13S, 14R)-2-ethyl-3,4,10-trihydroxy-11-(((2S,3R,4R,6R)-3-hydroxy-4-((2-hydroxy-3-((2-hydroxyethyl)(propyl)amino)propyl) (methyl)amino)-6-methyltetrahydro-2H-pyran-2-yl)oxy)-13-(((2R,4R,58,6S)-5-hydroxy-4-methoxy-4,6-dimethyltetrahydro-2H-pyran-2-yl)oxy)-3,5,6,8,10,12,14-heptamethyl-1-oxa-6-azacyclopentadecan-15-one], the “SARS-CoV-2 viral protein production in CaCo2 cells - effect of each substance at 10 μM (% of untreated)” value in the data set with SARS-CoV-2 was 35 % of untreated.

Consider `CC[C@H]1OC(=O)[C@H](C)[C@@H](O[C@H]2C[C@@](C)(OC)[C@@H](O[N+](=O)[O-])[C@H](C)O2)[C@H](C)[C@@H](O[C@@H]2O[C@H](C)C[C@H](N(C)C)[C@H]2O)[C@](C)(O)C[C@@H](C)CN(C)[C@H](C)[C@@H](O)[C@]1(C)O` [Compound E-1, (2S,3S,4R,6R)-6-(((2R,3S,4R,5R,8R,10R,11R,12S,13S, 14R)-11-(((2S,3R,4S,6R)-4-(dimethylamino)-3-hydroxy-6-methyltetrahydro-2H-pyran-2-yl)oxy)-2-ethyl-3,4,10-trihydroxy-3,5,6,8,10,12,14-heptamethyl-15-oxo-1-oxa-6-azacyclopentadecan-13-yl)oxy)-4-methoxy-2,4-dimethyltetrahydro-2H-pyran-3-yl nitrate], for which the “Absorbance of culture medium at 600 nm” value was 0.902 in the data set on Staphylococcus carnosus (0.8 μM); 0.856 in the data set with Staphylococcus carnosus (2 μM); 0.864 in the data set with Staphylococcus carnosus (3 μM); 0.625 in the data set on Staphylococcus carnosus (6 μM); 0.068 with Staphylococcus carnosus (13 μM); 0.078 in the data set with Staphylococcus carnosus (25 μM). Moreover, the “Absorbance of culture medium at 600 nm” value in the data set on Staphylococcus carnosus (50 μM) was determined as 0.096; in the data set with Staphylococcus carnosus (100 μM), 0.157; in the data set with Salmonella typhimurium (0.8 μM), 0.722; in the data set with Salmonella typhimurium (2 μM) it was 0.761; in the data set with Salmonella typhimurium (3 μM) it was 0.711; with Salmonella typhimurium (6 μM), 0.741. For the same compound, the “Absorbance of culture medium at 600 nm” value is reported as 0.722 in the data set with Salmonella typhimurium (13 μM), 0.736 in the data set on Salmonella typhimurium (25 μM), 0.484 in the data set on Salmonella typhimurium (50 μM) and 0.557 in the data set with Salmonella typhimurium (100 μM).

For the compound `CC[C@H]1OC(=O)[C@H](C)[C@@H](O[C@H]2C[C@@](C)(OC)[C@@H](O)[C@H](C)O2)[C@H](C)[C@@H](O[C@@H]2O[C@H](C)CC(N(C)C)[C@H]2O[N+](=O)[O-])[C@](C)(O)C[C@@H](C)CN(C)[C@H](C)[C@@H](OC)[C@]1(C)O` (some centres unmarked) [Compound E-11], in the data set with SARS-CoV-2, the “SARS-CoV-2 viral protein production in CaCo2 cells - effect of each substance at 10 μM (% of untreated)” value was 32 % of untreated. Moreover, the “Absorbance of culture medium at 600 nm” value with Staphylococcus carnosus (0.8 μM) is given as 0.941; in the data set with Staphylococcus carnosus (2 μM), 0.918; in the data set with Staphylococcus carnosus (3 μM) it was 0.890; in the data set with Staphylococcus carnosus (6 μM) it was 0.887; with Staphylococcus carnosus (13 μM) it was 0.822; with Staphylococcus carnosus (25 μM) it was 0.819. The “Absorbance of culture medium at 600 nm” value in the data set with Staphylococcus carnosus (50 μM) is 0.574; in the data set with Staphylococcus carnosus (100 μM) it was 0.641; in the data set with Salmonella typhimurium (0.8 μM), 0.555; in the data set with Salmonella typhimurium (2 μM), 0.587; in the data set on Salmonella typhimurium (3 μM), 0.623; in the data set on Salmonella typhimurium (6 μM) it was 0.627. In addition, the “Absorbance of culture medium at 600 nm” value in the data set on Salmonella typhimurium (13 μM) is given as 0.633; in the data set on Salmonella typhimurium (25 μM), 0.697; in the data set on Salmonella typhimurium (50 μM) it was 0.650; in the data set with Salmonella typhimurium (100 μM), 0.562.

Consider `CC[C@H]1OC(=O)[C@H](C)[C@@H](O[C@@H]2O[C@@H](C)[C@@H](OC(C)=O)[C@@H](OC(C)=O)[C@@H]2OC(C)=O)[C@H](C)[C@@H](O[C@@H]2O[C@H](C)C[C@H](N(C)C)[C@H]2O)[C@](C)(O)C[C@@H](C)CN(C)[C@H](C)[C@@H](O)[C@]1(C)O` [Compound A-23, 3-descladinosyl-3-triacetylfucosylazithromycin], for which the “SARS-CoV-2 viral protein production in CaCo2 cells - effect of each substance at 10 μM (% of untreated)” value in the data set on SARS-CoV-2 was 44 % of untreated.

Regarding `CC[C@H]1OC(=O)[C@H](C)[C@@H](O[C@H]2C[C@@](C)(OC)[C@@H](O)[C@H](C)O2)[C@H](C)[C@@H](O[C@@H]2O[C@H](C)C[C@H](N(C)C)[C@H]2O)[C@](C)(O)C[C@@H](C)CN(C)[C@H](C)[C@@H](O)[C@]1(C)O` [Azithromycin, reference compound], the “Bacteria quantified as CFU recovered from a standard sample of kidney” value in data set [1] is “decreases recovered bacteria in a dose responsive manner”.

For the compound `CN(C)C(=O)COC(=O)Cc1ccc(OC(=O)c2ccc(NC(=N)N)cc2)cc1` [Camostat, reference compound], the Fluorescence ratio is given as 0.09 with SARS-CoV-2 (0.312 μM of the (first named) compound); 0.08 in the data set on SARS-CoV-2 (0.625 μM of the (first named) compound); 0.01 with SARS-CoV-2 (1.25 μM of the (first named) compound); 0.03 with SARS-CoV-2 (2.5 μM of the (first named) compound); 0.07 with SARS-CoV-2 (5 μM of the (first named) compound); 0.02 in the data set on SARS-CoV-2 (10 μM of the (first named) compound). Moreover, the “SARS-CoV-2 viral protein production in CaCo2 cells - effect of each substance at 10 μM (% of untreated)” value in the data set on SARS-CoV-2 is 2 % of untreated.

`CC[C@H]1OC(=O)[C@H](C)[C@@H](O)[C@H](C)[C@@H](O[C@@H]2O[C@H](C)C[C@H](NC)[C@H]2O)[C@](C)(O)C[C@@H](C)CN(C)[C@H](C)[C@@H](O)[C@]1(C)O` [Compound A-25, (2R,3S,4R,5R,8R,10R,11R,12S,13S, 14R)-2-ethyl-3,4,10,13-tetrahydroxy-11-(((2S,3R,4S,6R)-3-hydroxy-6-methyl-4-(methylamino)tetrahydro-2H-pyran-2-yl)oxy)-3,5,6,8,10,12,14-heptamethyl-1-oxa-6-azacyclopentadecan-15-one]: the “SARS-CoV-2 viral protein production in CaCo2 cells - effect of each substance at 10 μM (% of untreated)” value in the data set on SARS-CoV-2 was 34 % of untreated.
